How the values were obtained:
neointimal formation = conditions: controlled local delivery, rat carotid balloon injury model; cited from earlier work
[1] = biological target: epidermal growth factor receptor (Homo sapiens, UniProt P00533); conditions: cited from earlier work
[2] = test system: DNA synthesis stimulated by insulin, by epidermal growth factor, or by a combination of both; conditions: cited from earlier work
[3] = test system: fibroblast growth factor-dependent DNA synthesis; conditions: relative to PDGF-dependent DNA synthesis; cited from earlier work
porcine SMC = assay: Inhibition of SMC proliferation and recovery (cell count); assay type: cell-based; conditions: 10 μM; for mean reduction in SMC count by day 3: compared to DMSO treated control cells; for reversibility of the inhibitory effect on SMC proliferation: cultures washed on day 7, recovery counted day 13
Experimental: Smooth muscle cells (SMC) were obtained under aseptic conditions from porcine abdominal aortas. Each artery was cut open and the endothelial surface mechanically scraped. The vessels were then cut into 2 mm^2 fragments which were placed in culture dishes with Dulbecco's modified Eagle's medium (DMEM) supplemented with 15% (v/v) fetal calf serum (FCS), 100 u/ml penicillin, 100 μg/ml streptomycin, and […]. The tissue fragments were then placed in an incubator at 37° C. under 9% CO2 atmosphere until SMC outgrowth was detected (typically within 3-7 days). […] For experiments testing the effect of tyrphostins on growth inhibition and recovery (see below), SMC from passages 1-3 were replated in 15 mm wells pretreated with 3 μg/cm^2 fibronectin (Biological Industries, Kibbutz Beit Haemek, Israel) at 15,000 cells/well.
Inhibition of cell proliferation and recovery: Monolayer cell growth inhibition and recovery experiments were repeated 3 or 4 times. Each experiment was performed in triplicate. Approximately 15,000 cells (SMC or PAEC) in 1 ml of culture medium supplemented with either 15% FCS (SMC) or 10% FCS (PAEC) were seeded on day 0 in 15 mm-wells precoated with fibronectin (SMC) or uncoated (PAEC). Cultures were treated with 10 μM of the following tyrphostin compounds: AG2033, AC2034, AG2043 and AG2044 (for SMC) or AG2033 (for PAEC) dissolved in 0.1% DMSO on days 1 and 3. On day 7, cultures were washed and the cells allowed to recover. Typically cells were counted on days 3 and 6 for inhibition, and on day 13 for recovery. The medium supplemented with serum (DMEM for SMC and Ham's F12 for PAEC) was changed every other day throughout the experiment.
Cells were grown in the presence of the specified tyrphostins and were counted on days 3, 6 and 13 in culture. On day 7 the cultures were washed and the cells allowed to recover. […] The inhibitory effect of all three compounds was reversible, and the cells resumed normal growth response as soon as the treatment with the tyrphostins was withdrawn.

PDGF β-receptor [4] = biological target: T1, PDGF β-receptor (Homo sapiens, UniProt P09619); conditions: cited from earlier work
T1 sequence (P09619 33-1106): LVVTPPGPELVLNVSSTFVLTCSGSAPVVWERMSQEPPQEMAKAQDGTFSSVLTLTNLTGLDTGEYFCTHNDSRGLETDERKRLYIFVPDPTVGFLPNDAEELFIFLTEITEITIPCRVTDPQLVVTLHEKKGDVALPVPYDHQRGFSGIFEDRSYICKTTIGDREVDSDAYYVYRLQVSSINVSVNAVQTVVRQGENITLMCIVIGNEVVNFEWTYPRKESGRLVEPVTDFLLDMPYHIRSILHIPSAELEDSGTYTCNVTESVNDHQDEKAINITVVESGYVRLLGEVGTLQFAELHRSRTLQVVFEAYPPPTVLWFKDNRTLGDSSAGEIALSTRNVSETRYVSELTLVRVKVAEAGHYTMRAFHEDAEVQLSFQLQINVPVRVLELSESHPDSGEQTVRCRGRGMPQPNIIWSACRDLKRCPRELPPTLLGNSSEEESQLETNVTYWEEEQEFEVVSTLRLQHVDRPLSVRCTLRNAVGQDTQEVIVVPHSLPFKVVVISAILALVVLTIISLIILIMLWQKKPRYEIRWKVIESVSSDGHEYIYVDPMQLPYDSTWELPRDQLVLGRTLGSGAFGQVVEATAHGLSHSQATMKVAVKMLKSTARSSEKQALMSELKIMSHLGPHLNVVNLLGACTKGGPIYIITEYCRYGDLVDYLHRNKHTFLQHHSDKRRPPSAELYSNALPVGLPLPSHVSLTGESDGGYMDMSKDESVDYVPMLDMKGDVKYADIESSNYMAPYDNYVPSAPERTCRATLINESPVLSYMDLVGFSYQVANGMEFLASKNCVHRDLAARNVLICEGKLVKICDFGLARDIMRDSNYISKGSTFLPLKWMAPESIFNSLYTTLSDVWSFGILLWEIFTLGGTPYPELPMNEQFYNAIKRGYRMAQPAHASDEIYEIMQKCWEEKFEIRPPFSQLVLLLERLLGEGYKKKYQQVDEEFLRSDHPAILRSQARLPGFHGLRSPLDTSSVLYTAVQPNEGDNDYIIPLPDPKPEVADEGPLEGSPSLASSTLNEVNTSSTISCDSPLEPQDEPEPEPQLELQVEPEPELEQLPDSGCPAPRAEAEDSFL

p60c-src(F527) = biological target: T2, p60c-src(F527) (Gallus gallus, UniProt P00523, Y527F); conditions: immunoprecipitated from src-transformed NIH 3T3 cells; cited from earlier work
T2 construct: host or cells: src-transformed NIH 3T3 cells (immunoprecipitate)

[5] = test system: porcine aortic endothelial cells; conditions: cited from earlier work
[6] = test system: sis-transfected NIH 3T3 cells; conditions: cited from earlier work
human PDGF α-receptor = human PDGF α-receptor (Homo sapiens, UniProt P16234); conditions: cited from earlier work
human PDGF α-receptor, sequence (P16234 24-1089): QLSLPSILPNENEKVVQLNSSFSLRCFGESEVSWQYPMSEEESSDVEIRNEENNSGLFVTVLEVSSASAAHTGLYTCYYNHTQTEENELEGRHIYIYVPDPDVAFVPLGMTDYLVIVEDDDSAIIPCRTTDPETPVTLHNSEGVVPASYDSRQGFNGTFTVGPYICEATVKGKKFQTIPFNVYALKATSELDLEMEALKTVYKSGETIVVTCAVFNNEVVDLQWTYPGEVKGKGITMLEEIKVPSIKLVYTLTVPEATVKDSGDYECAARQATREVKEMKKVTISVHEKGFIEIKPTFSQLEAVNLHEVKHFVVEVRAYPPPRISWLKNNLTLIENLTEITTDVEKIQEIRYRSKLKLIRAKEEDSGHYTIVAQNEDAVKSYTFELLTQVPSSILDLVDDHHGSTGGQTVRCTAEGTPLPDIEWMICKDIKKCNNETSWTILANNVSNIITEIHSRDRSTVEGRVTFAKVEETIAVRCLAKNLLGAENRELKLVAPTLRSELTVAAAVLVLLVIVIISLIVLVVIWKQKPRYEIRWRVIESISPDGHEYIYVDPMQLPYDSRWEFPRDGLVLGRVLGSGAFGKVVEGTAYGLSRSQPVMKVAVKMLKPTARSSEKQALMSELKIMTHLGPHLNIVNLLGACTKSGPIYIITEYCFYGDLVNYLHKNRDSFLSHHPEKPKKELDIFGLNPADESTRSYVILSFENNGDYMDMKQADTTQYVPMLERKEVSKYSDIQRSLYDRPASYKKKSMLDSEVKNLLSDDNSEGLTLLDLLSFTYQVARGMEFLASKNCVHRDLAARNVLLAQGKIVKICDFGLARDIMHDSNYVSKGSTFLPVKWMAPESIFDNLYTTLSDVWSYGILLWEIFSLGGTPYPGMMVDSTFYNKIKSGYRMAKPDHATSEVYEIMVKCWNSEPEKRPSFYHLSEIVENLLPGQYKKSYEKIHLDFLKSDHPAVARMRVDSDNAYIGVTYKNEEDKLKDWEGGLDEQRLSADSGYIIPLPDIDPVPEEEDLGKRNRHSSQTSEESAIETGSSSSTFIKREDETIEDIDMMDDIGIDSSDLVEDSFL

[7] = biological target: stem cell factor receptor (c-Kit) (Homo sapiens, UniProt P10721); conditions: cited from earlier work
[8] = test system: src-transformed NIH 3T3 cells; conditions: cited from earlier work
[9] = biological target: vascular endothelial growth factor receptor KDR (Homo sapiens, UniProt P35968); conditions: cited from earlier work
vascular endothelial growth factor receptor KDR, sequence (P35968 20-1356): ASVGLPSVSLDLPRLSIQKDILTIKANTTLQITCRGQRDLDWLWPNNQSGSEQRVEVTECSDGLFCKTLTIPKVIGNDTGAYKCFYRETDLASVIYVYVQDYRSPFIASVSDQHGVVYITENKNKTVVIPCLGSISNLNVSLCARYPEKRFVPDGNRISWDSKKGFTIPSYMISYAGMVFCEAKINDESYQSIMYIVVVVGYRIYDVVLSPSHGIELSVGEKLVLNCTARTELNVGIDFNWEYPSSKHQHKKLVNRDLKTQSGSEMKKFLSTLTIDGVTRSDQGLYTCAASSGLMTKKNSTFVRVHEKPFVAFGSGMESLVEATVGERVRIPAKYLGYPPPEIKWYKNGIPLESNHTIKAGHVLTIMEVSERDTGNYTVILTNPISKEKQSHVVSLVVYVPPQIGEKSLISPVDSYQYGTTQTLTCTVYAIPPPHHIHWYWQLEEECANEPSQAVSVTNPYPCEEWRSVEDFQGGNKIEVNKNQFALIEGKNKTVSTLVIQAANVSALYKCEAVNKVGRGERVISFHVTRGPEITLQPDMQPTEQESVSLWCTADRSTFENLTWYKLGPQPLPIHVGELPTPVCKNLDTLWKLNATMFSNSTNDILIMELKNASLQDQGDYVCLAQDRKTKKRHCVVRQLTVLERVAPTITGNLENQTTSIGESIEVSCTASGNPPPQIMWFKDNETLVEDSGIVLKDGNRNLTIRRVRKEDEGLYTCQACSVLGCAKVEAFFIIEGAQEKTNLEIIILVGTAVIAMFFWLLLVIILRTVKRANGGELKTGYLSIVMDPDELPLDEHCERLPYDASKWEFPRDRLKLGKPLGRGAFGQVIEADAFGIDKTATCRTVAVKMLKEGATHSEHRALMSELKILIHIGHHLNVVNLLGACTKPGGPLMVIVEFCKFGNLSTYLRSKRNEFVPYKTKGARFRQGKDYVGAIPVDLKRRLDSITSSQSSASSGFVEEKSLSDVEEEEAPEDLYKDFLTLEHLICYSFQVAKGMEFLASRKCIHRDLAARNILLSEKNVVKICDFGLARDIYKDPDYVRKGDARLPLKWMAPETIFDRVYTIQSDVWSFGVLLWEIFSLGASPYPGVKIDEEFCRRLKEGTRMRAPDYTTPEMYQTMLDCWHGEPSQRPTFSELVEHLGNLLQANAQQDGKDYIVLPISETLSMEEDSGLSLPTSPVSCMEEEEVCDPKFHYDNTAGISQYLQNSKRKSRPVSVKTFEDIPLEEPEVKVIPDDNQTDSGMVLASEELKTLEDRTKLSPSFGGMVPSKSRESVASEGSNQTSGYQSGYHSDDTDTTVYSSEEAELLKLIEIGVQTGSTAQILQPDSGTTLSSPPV

PDGFβR = biological target: T3, PDGFβR (Mus musculus, UniProt P05622); assay: PDGF-induced PDGFβR autophosphorylation in intact Swiss 3T3 cells (FIG. 8); assay type: cell-based; conditions: compared with AG2033 at 1 μM
T3 construct: A preparation of purified PDGFR from Swiss 3T3 cell membranes was used; endogenous in cells
Experimental: Kinase reactions, using an isolated PDGFβR preparation, in the presence of 0.03-3 μM tyrphostin, were conducted, utilizing [γ-^32P]ATP as probe. Densitometric evaluation, relative to control lacking the tyrphostin inhibitor (100%), results in the percent autokinase activity, presented in Table 8 and in the dose-response curves for the purified transoid isomers AG2033 (FIG. 6) and AG2043 (FIG. 7). Further comparison between the resulting autoradiogrms for each pair of geometrical isomers AG2033 and AG2034 (upper panel); AG2043 and AG2044 (lower panel), for their inhibitory activity towards PDGF-induced PDGFβR autophosphorylation (concentration range: 0.1-10 μM) in intact cells is presented in FIG. 8. […] Similar potency relation exists between the AG2043 and AG2044 isomers.

PDGF β-receptor [10] = biological target: T1, PDGF β-receptor; assay: PDGF-induced PDGFR autophosphorylation in intact PAEC cells; assay type: cell-based; parameters: expressed in transfected cells; host or cells: porcine aortic endothelial cells (PAEC), stably transfected; conditions: intact PAEC cells expressing PDGFR, PDGF-BB stimulated; read-out: IC50 (50% inhibition of phosphorylation) PDGFR
Experimental: Effect of tyrphostins on PDGF-induced PDGFR autophosphorylation in intact PAEC cells: PAEC cells, transfected with either PDGFR or KDR, cultivated in Ham's F-12 medium supplemented with 10% fetal calf serum (FCS), were synchronized for 20 hours in a medium containing 0.01% BSA. […] After stimulation, the cells were solubilized in Nonidet P-40 (1%) containing lysis buffer.
The analysis of PDGF β-receptor phosphorylation was performed as follows. Cell lysates were subjected to immunoprecipitation using the PDGF β-receptor specific antiserum R3 [5]. The precipitates were subjected to polyacrylamide (7.5%) gel electrophoresis in presence of sodium dodecyl sulfate (SDS-PAGE) and were thereafter blotted onto a nitrocellulose membrane (Hybond C-EXTRA, Amersham). Phosphorylated proteins were detected by immunoblotting using the horseradish-peroxidase conjugated phosphotyrosine antibodies PY20 and 4G10 (Upstate Biotechnology), followed by application of secondary horseradish-peroxidase conjugated goat-anti-mouse antibody and chemoluminescence-based detection (ECL, Amersham) and autoradiography.
The data in Table 9 presents the differential potencies of the various compounds with respect to PDGFR and KDR, as was performed on intact PAEC cells expressing these receptors (see experimental methods section above).

epidermal growth factor receptor, sequence (P00533 25-1210, species assumed): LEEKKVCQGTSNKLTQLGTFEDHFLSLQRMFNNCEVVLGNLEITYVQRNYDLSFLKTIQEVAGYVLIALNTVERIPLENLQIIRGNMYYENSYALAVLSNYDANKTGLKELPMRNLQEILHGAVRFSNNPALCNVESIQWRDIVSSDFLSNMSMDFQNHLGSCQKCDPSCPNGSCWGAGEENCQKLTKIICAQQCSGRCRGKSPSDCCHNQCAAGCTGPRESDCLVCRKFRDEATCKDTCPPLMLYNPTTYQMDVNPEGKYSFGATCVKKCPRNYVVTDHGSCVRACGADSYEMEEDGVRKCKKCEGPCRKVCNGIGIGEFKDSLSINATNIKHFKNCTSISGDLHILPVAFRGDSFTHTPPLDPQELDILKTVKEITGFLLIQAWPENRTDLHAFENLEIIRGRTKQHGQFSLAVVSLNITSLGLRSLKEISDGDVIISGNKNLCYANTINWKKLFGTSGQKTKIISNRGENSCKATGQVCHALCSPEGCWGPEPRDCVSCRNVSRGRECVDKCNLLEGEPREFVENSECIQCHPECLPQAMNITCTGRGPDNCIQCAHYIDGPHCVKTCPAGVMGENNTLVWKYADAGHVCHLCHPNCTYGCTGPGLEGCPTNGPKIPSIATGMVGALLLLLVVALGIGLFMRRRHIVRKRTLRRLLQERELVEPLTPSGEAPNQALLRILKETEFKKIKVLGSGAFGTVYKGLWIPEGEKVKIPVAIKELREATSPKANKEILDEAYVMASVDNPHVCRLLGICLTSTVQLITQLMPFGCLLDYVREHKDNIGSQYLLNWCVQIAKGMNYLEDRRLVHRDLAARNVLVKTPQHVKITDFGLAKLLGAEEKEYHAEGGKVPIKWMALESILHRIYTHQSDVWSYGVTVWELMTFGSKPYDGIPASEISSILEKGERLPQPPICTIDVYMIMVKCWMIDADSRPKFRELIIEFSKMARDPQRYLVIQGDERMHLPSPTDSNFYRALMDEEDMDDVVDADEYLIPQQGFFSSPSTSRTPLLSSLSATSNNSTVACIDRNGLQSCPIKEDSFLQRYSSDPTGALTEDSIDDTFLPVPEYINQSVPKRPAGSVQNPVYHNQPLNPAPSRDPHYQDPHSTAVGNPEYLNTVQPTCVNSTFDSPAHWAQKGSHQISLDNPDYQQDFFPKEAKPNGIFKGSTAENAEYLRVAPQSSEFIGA

Compound	effect on epidermal growth factor receptor autophosphorylation [1]	effect on DNA synthesis stimulated by insulin, EGF or a combination of both [2]	blocking effect on fibroblast growth factor-dependent DNA synthesis [3]	mean reduction in SMC count by day 3 (porcine SMC) [%]	reversibility of the inhibitory effect on SMC proliferation (porcine SMC)	melting point [°C]	IC50 (PDGF β-receptor [10]) [µM]	also measured
CC(C)(C)c1cc(C=C(C#N)C#N)cc(C(C)(C)C)c1O [AG17]								inhibition of neointimal formation (neointimal formation): effectively inhibits
Cc1cc2ncc(-c3ccccc3)nc2cc1C [AG1295]	no effect	weak effects	over an order of magnitude weaker blocking effect	61	completely reversible			
COc1cc2ncc(-c3ccccc3)nc2cc1OC [AG1296]	no effect	weak effects	over an order of magnitude weaker blocking effect					inhibition of signalling of human PDGF β-receptor (PDGF β-receptor [4]): potently inhibits; effect on activity of kinase p60c-src(F527) (p60c-src(F527)): no effect; effect on DNA synthesis induced by VEGF [5]: no effect; effect on transformed phenotype of sis-transfected NIH 3T3 cells [6]: reverses the transformed phenotype; inhibition of signalling of human PDGF α-receptor (human PDGF α-receptor): potently inhibits; inhibition of signalling of stem cell factor receptor (c-Kit) [7]: potently inhibits; effect on src-transformed NIH 3T3 cells [8]: no effect; effect on autophosphorylation of KDR [9]: no effect
Cc1nc2cc3ncc(-c4ccccc4)nc3cc2n1C [AG2034, 1,2-dimethyl-7-phenyl imidazolo[5,4-g]quinoxaline]						218	10	concentration giving similar (marked) inhibition of PDGFβR autophosphorylation in intact cells (PDGFβR): 10 to 30 µM
Cc1nc2cc3ncc(-c4cccs4)nc3cc2n1C [AG2044, 1,2-dimethyl-7-(2-thiophene) imidazolo[5,4-g]quinoxaline]				84	completely reversible	218	5	
